Key:
HT-22 cells = assay: HT-22 serum deprivation toxicity; type: cell-based, mouse; settings: for protection against serum deprivation: 24 h in 10% FBS with compound, then about 12 h serum free medium; for concentration enhancing serum deprivation-induced toxicity: HT-22
Experimental: The effects of pretreatment of HT-22 cells with PPARγ agonists on serum deprivation toxicity were also studied. We examined whether 15d-PGJ2 or troglitazone have neuroprotective activity against serum deprivation toxicity. HT-22 cells were incubated for 24 hours in 10% FBS medium containing either 15d-PGJ2 or troglitazone. Then, cells were exposed for about 12 hours to a serum free medium with both of the compounds present. […] In addition, 15d-PGJ2 and troglitazone enhanced the serum deprivation-induced toxicity at or above 10 μM and 20 μM, respectively.
The WY-14643, Ciglitazone, Troglitazone, 9-cis retinoic acid, and 15d-PGJ2 compounds were purchased from Biomol (Plymouth Meeting, Pa.). L-165041 and L-783483 were kindly provided by Merck Laboratories. The cell lines used were HT-22, an immortalized mouse hippocampal cell line, and SK—N—SH, a human neuroblastoma cell line. The HT-22 cells were obtained from David Schubert (Salk Institute, San Diego, Calif.). The HT-22 line was originally selected from HT-4 cells based on glutamate sensitivity. HT-4 cells were immortalized from primary hippocampal neurons using a temperature-sensitive SV-40 T antigen (Morimoto and Koshland, 1990). SK—N—SH were obtained from ATCC (Manassas, Va.). HT-22 and SK—N—SH cells were grown to confluence in DMEM and RPMI-1640 media, respectively, and supplemented with 10% charcoal/dextran-treated fetal bovine serum (FBS), and 5 mg/ml gentamycin at 37° C. under 95% air, 5% CO2. HT-22 cells were plated at a density of 50,000 cells/ml (5,000 cells/well), and SK—N—SH were plated at a density of 120,000 to 150,000 cells/ml (12,000 to 15,000 cells/well) in 96-well plates. In most studies, wells were pre-treated with PPAR ligands over a wide dose range at various times prior to being subjected to either glutamate, hydrogen peroxide (H2O2), or serum deprivation insults. In some studies, the insults were applied prior to the addition of the PPAR ligand.
The cell viability assays were conducted about 14 to 24 hours post-insult time, viability of cells was determined using 2.5 μM Calcein AM assay in phosphate-buffered saline (PBS). After 25 minutes of incubation, live cells were distinguished by the presence of intracellular esterase activity, which cleaves the calcein AM dye, producing a bright green fluorescence. Viability was measured in Relative Fluorescent Units (“RFU”), and expressed as percentage of vehicle-treated control values. The calcein assay was designed to produce results that accurately reflect viable cell numbers. At cell concentrations below 10,000 cells per well (96-well plate) a linear relationship between RFU and cell number is achieved (r^2=0.9997, data not shown).

RGC-5 cells = assay: RGC-5 glutamate cytotoxicity; type: cell-based; settings: dose dependent manner
Experimental: (§1) The in vitro model used for oxidative cell death was based upon glutamate, hydrogen peroxide, and buthionine sulfoximine (“BSO”) administration to HT-22 mouse hippocampal, C6 rat glioma, and RGC-5 retinal ganglion cell lines. The ease that the above cell lines are cultured is well known in the art of cell culture. Additionally, these cell lines are suitable for screening a various number of compounds described in the present invention.
(§2) Although not wanting to be bound by theory, the toxicity of glutamate in HT-22 (32) and C6 glioma (33) cell lines is mediated through oxidative stress. HT-22 cells lack ionotropic N-methyl-D-aspartate (“NMDA”) glutamate receptors, and the glutamate-induced cell death appears to occur via a slow onset oxidative stress (32,34,35). Glutamate blocks cystine uptake by inhibiting the glutamate/cystine antiporter in both HT-22 (32) and C6 glioma (33) cell lines. […] In some of the experiments, the viability of cells was determined using 2.5 μM calcein AM assay in phosphate-buffered saline (PBS 1×). After 25 minutes of incubation, live cells were distinguished by the presence of intracellular esterase activity, which cleaves the calcein AM dye, producing a bright green fluorescence, as shown in FIG. 22. Viability was measured in Relative Fluorescent Units (“RFU”), and expressed as percentage of vehicle-treated control values. […]

C6 Glioma cells = assay: C6 glioma glutamate cytotoxicity; type: cell-based, rat; settings: dose dependent manner
Experimental: as §1, §2

Row | SMILES | protection against serum deprivation (HT-22 cells) | concentration enhancing serum deprivation-induced toxicity (HT-22 cells) | protection against glutamate toxicity (RGC-5 cells) | protection against glutamate toxicity (C6 Glioma cells)
1 | CCCCC/C=C/C=C1/C(=O)C=C[C@@H]1C/C=C\CCCC(=O)O [15d-PGJ2, 15-deoxy-Δ^12,14-PGJ2] | failed to protect | ≥ 10 µM | protected | protected
2 | Cc1c(C)c2c(c(C)c1O)CCC(C)(COc1ccc(CC3SC(=O)NC3=O)cc1)O2 (centres unmarked) [troglitazone] | failed to protect | ≥ 20 µM | protected | protected
